Source: article PMC7523345 (Investigational new drugs, 2018)
Entries after “also recorded” stand apart in the source; their conditions may differ.

Assay: Phase I dose escalation study: safety, tolerability, DLT and MTD
Type: in vivo

## Cc1cccc2c1NC(=O)[C@@H](NC(=O)[C@H](CCC(F)(F)F)[C@H](CCC(F)(F)F)C(N)=O)N=C2c1cccc(F)c1 [BMS-986115]
Arm A QD 2.0 mg (N = 7)
  Leucocytosis (drug related AE, Grade 3 and 4): 0 n (%)
  Mouth ulceration (drug related AE, all grades): 1 (14) n (%)
  Nausea (drug related AE, Grade 3 and 4): 1 (14) n (%)
  Nausea (drug related AE, all grades): 5 (71) n (%)
  Pruritus (drug related AE, Grade 3 and 4): 1 (14) n (%)
  Pruritus (drug related AE, all grades): 3 (43) n (%)
  Pulmonary embolism (drug related AE, Grade 3 and 4): 0 n (%)
  Rash (drug related AE, all grades): 1 (14) n (%)
  Rash maculopapular (drug related AE, all grades): 2 (29) n (%)
  Sinusitis (drug related AE, all grades): 0 n (%)
  Urticaria (drug related AE, Grade 3 and 4): 1 (14) n (%)
  Vision blurred (drug related AE, all grades): 0 n (%)
  Vomiting (drug related AE, Grade 3 and 4): 1 (14) n (%)
  Vomiting (drug related AE, all grades): 5 (71) n (%)
  Weight decreased (drug related AE, all grades): 0 n (%)
Arm A QD 2.0 mg, 5 DLT evaluable patients
  No. of patients with DLTs: 3
Arm A QD Total (N = 24)
  Abdominal distension (drug related AE, all grades): 1 (4) n (%)
  Abdominal pain (drug related AE, Grade 3 and 4): 1 (4) n (%)
  Abdominal pain (drug related AE, all grades): 2 (8) n (%)
  Blood creatinine increased (drug related AE, all grades): 1 (4) n (%)
  Colitis (drug related AE, Grade 3 and 4): 1 (4) n (%)
  Cough (drug related AE, Grade 3 and 4): 1 (4) n (%)
  Cough (drug related AE, all grades): 3 (13) n (%)
  Decreased Appetite (drug related AE, Grade 3 and 4): 0 n (%)
  Decreased Appetite (drug related AE, all grades): 8 (33) n (%)
  Dehydration (drug related AE, Grade 3 and 4): 0 n (%)
  Dehydration (drug related AE, all grades): 3 (13) n (%)
  Dermatitis acneiform (drug related AE, all grades): 4 (17) n (%)
  Diarrhoea (drug related AE, Grade 3 and 4): 4 (17) n (%)
  Diarrhoea (drug related AE, all grades): 18 (75) n (%)
  Dry mouth (drug related AE, all grades): 2 (8) n (%)
  Dry skin (drug related AE, all grades): 3 (13) n (%)
  Dysgeusia (drug related AE, all grades): 3 (13) n (%)
  Dyspepsia (drug related AE, all grades): 2 (8) n (%)
  Dysphonia (drug related AE, all grades): 4 (17) n (%)
  Fatigue (drug related AE, Grade 3 and 4): 1 (4) n (%)
  Fatigue (drug related AE, all grades): 10 (42) n (%)
  Flatulence (drug related AE, all grades): 0 n (%)
  Hypocalcaemia (drug related AE, Grade 3 and 4): 0 n (%)
  Hypocalcaemia (drug related AE, all grades): 1 (4) n (%)
  Hypokalaemia (drug related AE, Grade 3 and 4): 4 (17) n (%)
  Hypokalaemia (drug related AE, all grades): 7 (29) n (%)
  Hyponatraemia (drug related AE, Grade 3 and 4): 1 (4) n (%)
  Hyponatraemia (drug related AE, all grades): 1 (4) n (%)
  Hypophosphataemia (drug related AE, Grade 3 and 4): 8 (33) n (%)
  Hypophosphataemia (drug related AE, all grades): 16 (67) n (%)
  Ileus (drug related AE, Grade 3 and 4): 1 (4) n (%)
  Increased upper airway secretion (drug related AE, all grades): 0 n (%)
  Laryngeal pain (drug related AE, all grades): 2 (8) n (%)
  Leucocytosis (drug related AE, Grade 3 and 4): 0 n (%)
  Mouth ulceration (drug related AE, all grades): 2 (8) n (%)
  Nausea (drug related AE, Grade 3 and 4): 3 (13) n (%)
  Nausea (drug related AE, all grades): 15 (63) n (%)
  Pruritus (drug related AE, Grade 3 and 4): 1 (4) n (%)
  Pruritus (drug related AE, all grades): 6 (25) n (%)
  Pulmonary embolism (drug related AE, Grade 3 and 4): 1 (4) n (%)
  Rash (drug related AE, all grades): 8 (33) n (%)
  Rash maculopapular (drug related AE, all grades): 2 (8) n (%)
  Sinusitis (drug related AE, all grades): 2 (8) n (%)
  Urticaria (drug related AE, Grade 3 and 4): 1 (4) n (%)
  Vision blurred (drug related AE, all grades): 1 (4) n (%)
  Vomiting (drug related AE, Grade 3 and 4): 1 (4) n (%)
  Vomiting (drug related AE, all grades): 12 (50) n (%)
  Weight decreased (drug related AE, all grades): 2 (8) n (%)
Arm A QD, all dose levels
  Patients with dose limiting toxicities: Four
Arm A QD, one line per subject
  Treatment-related SAEs, description: Gr 3 nausea with Gr 3 fatigue and Gr 4 hypophosphataemia; also recorded: Gr 3 ileus
Arm A, once daily (QD) oral dosing
  Maximum Tolerated Dose (MTD): 1.5 mg
Arm B BIW
  Subjects with treatment-related SAEs: 2 subjects
Arm B BIW 2 mg (N = 2)
  Abdominal distension (drug related AE, all grades): 0 n (%)
  Abdominal pain (drug related AE, Grade 3 and 4): 0 n (%)
